Experiment [1] relates to reserpine-induced hypothermia. Briefly: Antagonism of reserpine-induced hypothermia. The format is in vivo, mice. To be noted: for minimal effective dose: Mus musculus, read-out: minimum effective dose (M.E.D.), antagonism of reserpine-induced hypothermia; for potency relative to Compound A in reversal of reserpine-induced hypothermia: compared with Compound A. The procedure:
37, 795-797 (1981); and antagonize reserpine induced hypothermia when tested in accordance with the procedure of Askew, Life Sci. 1, 725-730 (1963).
All mice received 5mg/kg reserpine s.c. 18 h prior to test compound.

Experiment [2] concerns carbachol-stimulated contraction of the guinea-pig ileum. Briefly: Inhibition of carbachol-stimulated contraction of guinea-pig ileum.
Experiment [3] concerns the target synaptosomal uptake of norepinephrine (^3H-NE). Description: Inhibition of synaptosomal NE uptake.
Experiment [4] concerns the target ^3H-imipramine binding in brain tissue.
Experiment [5] deals with T1, synaptosomal uptake of serotonin (14C-5-HT) (Homo sapiens, UniProt P31645).
T1 construct: from tissue
T1 sequence (P31645 whole entry): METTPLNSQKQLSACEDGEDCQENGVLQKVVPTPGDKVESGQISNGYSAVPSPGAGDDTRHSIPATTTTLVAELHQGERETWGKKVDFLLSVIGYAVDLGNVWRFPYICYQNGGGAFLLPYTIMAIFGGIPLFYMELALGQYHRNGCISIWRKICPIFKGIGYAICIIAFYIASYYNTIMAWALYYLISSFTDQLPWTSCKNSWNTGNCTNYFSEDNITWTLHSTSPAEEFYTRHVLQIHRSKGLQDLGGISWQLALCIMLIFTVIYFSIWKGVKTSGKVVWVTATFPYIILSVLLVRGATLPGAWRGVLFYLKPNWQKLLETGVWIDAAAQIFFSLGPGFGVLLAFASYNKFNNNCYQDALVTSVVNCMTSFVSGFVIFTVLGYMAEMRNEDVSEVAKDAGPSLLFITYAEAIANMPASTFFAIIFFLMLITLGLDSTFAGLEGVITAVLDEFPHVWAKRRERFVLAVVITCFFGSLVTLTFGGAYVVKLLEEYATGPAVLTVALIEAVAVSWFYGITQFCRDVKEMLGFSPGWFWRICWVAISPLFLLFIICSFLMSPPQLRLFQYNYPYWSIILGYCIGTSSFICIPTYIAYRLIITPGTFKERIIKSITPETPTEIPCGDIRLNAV
Briefly: biochemical.

A further experiment addresses muscarinic receptor. To be noted: read-out: Ki (^3H-QNB binding).
The mark [6] stands for this setting: ip, mice, n = 8 per group, 5mg/kg reserpine s.c. 18 h prior to test compound.
[7] abbreviates: read-out: inhibition constant (Ki) vs. ^3H-imipramine.
[8] abbreviates: unit inferred, read-out: inhibition constants (vs. ^3H-imipramine).

Like-named read-outs stand apart in the source and are kept apart here.

Sequence of synaptosomal uptake of norepinephrine (^3H-NE) (P23975 whole entry): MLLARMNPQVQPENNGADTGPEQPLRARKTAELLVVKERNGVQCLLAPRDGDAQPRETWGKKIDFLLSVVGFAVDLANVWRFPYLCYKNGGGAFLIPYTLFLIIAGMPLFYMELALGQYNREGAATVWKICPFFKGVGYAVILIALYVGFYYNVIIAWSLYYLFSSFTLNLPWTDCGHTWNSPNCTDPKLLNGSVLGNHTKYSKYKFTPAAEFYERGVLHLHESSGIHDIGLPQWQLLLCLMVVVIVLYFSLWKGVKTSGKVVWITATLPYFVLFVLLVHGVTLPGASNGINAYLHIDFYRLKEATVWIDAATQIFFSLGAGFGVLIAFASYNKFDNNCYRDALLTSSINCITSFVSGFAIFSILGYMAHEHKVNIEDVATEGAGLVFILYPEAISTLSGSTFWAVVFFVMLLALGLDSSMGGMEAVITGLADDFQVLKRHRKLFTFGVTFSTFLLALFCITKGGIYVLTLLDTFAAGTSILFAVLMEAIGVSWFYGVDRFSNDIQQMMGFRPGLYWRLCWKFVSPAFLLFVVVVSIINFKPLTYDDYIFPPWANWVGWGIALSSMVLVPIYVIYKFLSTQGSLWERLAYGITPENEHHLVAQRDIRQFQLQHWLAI

As to `COc1ccc(C(CN(C)C)C2(O)CCCCC2)cc1` (racemic) [Compound A, 1-[(2-dimethylamino)-1-(4-methoxyphenyl)ethyl]-cyclohexanol], the minimal effective dose in experiment [1] (ip) and in experiment [1] (po) was 10 mg/kg throughout. Besides, the “activity against carbachol-stimulated contraction of the guinea-pig ileum” value in experiment [2] (at 1 µM) was “inactive”.

For `COc1ccc(C2CN(C)COC23CCCCC3)cc1` (stereo not drawn) [Compound B, 5-(4-methoxyphenyl)-3-methyl-3-aza-l-oxas^piro(5.5) undecane], the IC50 (usually the concentration at which inhibition is half-maximal) amounted to 4.7 µM in experiment [3] and 2.9 µM in experiment [5]. Further, the minimal effective dose in experiment [1] (setting [6]) was determined as 30 mg/kg. Also, in experiment [1] (mice), the “potency relative to Compound A in reversal of reserpine-induced hypothermia” value is recorded as “less potent”. Besides, the Ki in experiment [4] (setting [7]) is 0.35 µM.

With `CN(C)CC(c1ccc(Cl)cc1)C1(O)CCCCC1` (centres unmarked) [Compound C, 1-[1-(4-chlorophenyl)-2-(dimethylamino)ethyl]-cyclohexanol], the IC50 in experiment [3] was 0.33 µM; in experiment [5], 0.25 µM. Besides, the minimal effective dose in experiment [1] (setting [6]) is 10 mg/kg. In addition, the “potency relative to Compound A in reversal of reserpine-induced hypothermia” value in experiment [1] (mice) was “approximately equipotent”. The Ki in experiment [4] (setting [7]) came out at 0.1 µM.

Take `CN(C)CC(c1ccc(Br)cc1)C1(O)CCCCC1` (centres unmarked) [Compound D, 1-[1-(4-bromophenyl)-2-(dimethylamino)ethyl]-cyclohexanol]: the minimal effective dose in experiment [1] (setting [6]) is 3 mg/kg. The “potency relative to Compound A in reversal of reserpine-induced hypothermia” value in experiment [1] (mice) was “approximately three times as potent”. Also, in experiment [4] (setting [8]), the Ki was 0.062 µM.

Regarding `CN(C)CC(c1cccc(Cl)c1)C1(O)CCCCC1` (centres unmarked) [Compound E, 1-[1-(3-chlorophenyl)-2-(dimethylamino)ethyl]-cyclohexanol], the minimal effective dose in experiment [1] (setting [6]) came out at 1 mg/kg. The Ki in experiment [4] (read-out: inhibition constants (vs. ^3H-imipramine)) turned out to be 0.13 µM.

In the case of `CN(C)CC(c1cccc(Br)c1)C1(O)CCCCC1` (centres unmarked) [Compound F, 1-[1-(3-bromophenyl)-2-(dimethylamino)ethyl]-cyclohexanol], the minimal effective dose in experiment [1] (setting [6]) was 1 mg/kg. In addition, the “potency relative to Compound A in reversal of reserpine-induced hypothermia” value in experiment [1] (mice) is “approximately ten times as potent”. Moreover, in experiment [4] (setting [8]), the Ki amounted to 0.052 µM.

In experiment [3], `CN(C)CC(c1ccc(Cl)c(Cl)c1)C1(O)CCCCC1` (centres unmarked) [Compound G, 1-[1-(3,4-dichlorophenyl)-2-(dimethylamino)ethyl]-cyclohexanol] returned an IC50 of 0.07 µM. In addition, the minimal effective dose in experiment [1] (setting [6]) worked out at 3 mg/kg. Besides, the “potency relative to Compound A in reversal of reserpine-induced hypothermia” value in experiment [1] (mice) is “approximately three times as potent”. The Ki in experiment [4] (setting [8]) worked out at 0.037 µM.

For the compound `CNCCCN1c2ccccc2CCc2ccccc21` [DMI, desmethyl- imipramine, reference compound], in experiment [1] (ip), the minimal effective dose was 0.4 mg/kg. Also, the Ki at muscarinic receptor amounted to […].

Regarding `CN(C)CCCN1c2ccccc2CCc2ccccc21` [Imipramine, reference compound], the Ki at muscarinic receptor amounted to 0.037 µM. The Kb in experiment [2] (Cavia porcellus, read-out: KB against carbachol-stimulated contraction of the guinea-pig ileum) was about 0.1 µM.

These data come from patent publication EP0112669A2, “Phenethylamine derivatives and intermediates therefor” (AMERICAN HOME PRODUCTS CORPORATION, priority 1982, dated 1984).
